“Also recorded” adds a separate entry of the source. One block for each compound: values may come before it.
How the values were obtained:
[1] = test system: B-16 mouse melanoma cell (쥐의 멜라노마 세포); assay: Total melanin increase in B-16 mouse melanoma cells (darkening effect); assay type: cell-based; settings: for melanin production: absorbance at 400 nm per 1×10^6 cells
[2] = test system: human-derived fibroblasts, type I collagen (인간 유래 섬유아세포, 제1형 콜라겐); assay: Type I collagen synthesis promotion in human-derived fibroblasts (PICP EIA kit); assay type: cell-based
[3] = target: T1, elastase derived from human leukocytes (사람의 백혈구 세포로부터 유래한 엘라스테이즈) (Homo sapiens, UniProt P08246); assay: Elastase activity inhibition (MeOSuc-Ala-Ala-Pro-Val-pNA substrate); assay type: biochemical; settings: for elastase activity inhibition (in words): compared with quercetin; for enzyme activity: slope of absorbance at 405 nm
T1 construct: 사람의 백혈구 세포로부터 유래한 엘라스테이즈를 사용하였고; from tissue; host or cells: human leukocytes
T1 sequence (P08246 30-267): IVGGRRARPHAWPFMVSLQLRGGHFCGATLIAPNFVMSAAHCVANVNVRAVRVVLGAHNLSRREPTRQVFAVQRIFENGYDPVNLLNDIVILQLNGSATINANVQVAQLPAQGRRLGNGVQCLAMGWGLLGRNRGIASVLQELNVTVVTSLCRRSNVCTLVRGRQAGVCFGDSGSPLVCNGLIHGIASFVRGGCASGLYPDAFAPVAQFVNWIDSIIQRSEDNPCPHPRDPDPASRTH

[4] = Anti-glycation (L-arginine and glucose); assay type: biochemical; settings: for inhibition rate: 70 °C, 4 h, 420 nm
[5] = 10 ppm, room temperature, 20 min, n = 3, read-out: inhibition rate

Structure (SMILES): C=C[C@@]1(C)CC(=O)[C@]2(O)[C@@]3(C)[C@@H](O)CCC(C)(C)[C@@H]3[C@H](O)[C@H](OC(C)=O)[C@@]2(C)O1 [Forskolin, reference compound]
melanin production ([1]; 10 ppm, 3 days): 0.792 abs
activation at 10 ppm ([1]; Mus musculus, 72 h, 10 ppm, 3 days, relative to control, read-out: increase rate (total melanin)): 140%

Structure (SMILES): O=C1O[C@H]([C@@H](O)CO)C(O)=C1O [비타민C, reference compound]
activation at 52.85 ppm ([2]; Homo sapiens, Fibroblast, vitamin C positive control, 52.85 ppm, 48 h, relative to negative control, n = 4, read-out: increase rate (type I collagen production)): 64.3%
type I collagen production ([2]; vitamin C positive control, 52.85 ppm, 48 h, n = 4): 246.8 ng/mL

Structure (SMILES): O=c1c(O)c(-c2ccc(O)c(O)c2)oc2cc(O)cc(O)c12 [Quercetin, reference compound]
inhibition at 10 ppm [3, 5]: 69.2%

Structure (SMILES): N=C(N)NN [Aminoguanidine, reference compound]
inhibition rate ([4]; aminoguanidine positive control, 55 ppm): 54.89%

inhibition at 10 ppm [3, 5]: 55.8%
enzyme activity ([3]; 10 ppm, room temperature, 20 min, n = 3): 4.6
elastase activity inhibition (in words) ([3]; 20 ppm): 퀘르세틴보다 우수한 엘라스테이즈 활성 저해 효과가 나타나
inhibition at 20 ppm ([3]; 20 ppm, room temperature, 20 min, n = 3, read-out: inhibition rate): 69.2%
enzyme activity ([3]; 20 ppm, room temperature, 20 min, n = 3): 3.2
Structure (SMILES): C[C@@]12CC[C@@H]3[C@@](CC[C@H]4[C@@]3(C)CCC[C@@]4(C)C(=O)O)(CC1=O)C2 [화학식 1의 화합물, (4α,8β,13β)-13-Methyl-16-oxo-17-norkauran-18-oic acid]
melanin production ([1]; 1 ppm, 3 days): 0.662 abs
total melanin increase effect (in words) ([1]; 10 ppm, compared with forskolin): 10 ppm에서도 상당히 우수한 멜라닌 총량 증가 효과
melanin production ([1]; 20 ppm as printed in table, 3 days): 0.831 abs
activation at 1 ppm ([1]; Mus musculus, 72 h, 1 ppm, 3 days, relative to control, read-out: increase rate (total melanin)): 101%
activation at 20 ppm ([1]; Mus musculus, 72 h, 20 ppm as printed in table, 3 days, relative to control, read-out: increase rate (total melanin)): 152%
inhibition rate ([4]; 25 ppm): 51.12%
inhibition rate ([4]; 50 ppm): 69.22%
anti-glycation effect (in words) ([4]; compared with aminoguanidine): 항당화 효과가 더욱 뛰어남
collagen synthesis effect (in words) ([2]; 1 and 10 ppm, compared with vitamin C): 농도 의존적으로 콜라겐 합성량이 증가되었고; also recorded: 비타민C를 적용한 경우보다 더 낮은 농도에서 유사한 콜라겐 합성 효과를 나타내었다
type I collagen production ([2]; 1 ppm, 48 h, n = 4): 187.6 ng/mL
type I collagen production ([2]; 10 ppm, 48 h, n = 4): 265.5 ng/mL
activation at 1 ppm ([2]; Homo sapiens, Fibroblast, 1 ppm, 48 h, relative to negative control, n = 4, read-out: increase rate (type I collagen production)): 24.9%
activation at 10 ppm ([2]; Homo sapiens, Fibroblast, 10 ppm, 48 h, relative to negative control, n = 4, read-out: increase rate (type I collagen production)): 76.8%
elastase activity inhibition (in words) ([3]; 10 ppm): 엘라스테이즈 활성 저해 효과가 양성대조군인 퀘르세틴에 상응하는 정도로 높게 나타났으며

Source: patent KR20170078259A, “아이소스테비올을 포함하는 피부상태 개선용 조성물” (주식회사 엘지생활건강, priority 2015, dated 2017)
